Earlier results as cited in PubChem BioAssay AID1259409 (Chemical Carcinogenesis Research Information System (CCRIS), 2018).

Tested on: rodent chemically induced tumor inhibition, incidence and multiplicity
Assay: CCRIS tumor inhibitor studies

Structure (SMILES): O=C(OC[C@@H]1O[C@H](OC(=O)c2cc(O)c(O)c(OC(=O)c3cc(O)c(O)c(O)c3)c2)[C@@H](OC(=O)c2cc(O)c(O)c(OC(=O)c3cc(O)c(O)c(O)c3)c2)[C@H](OC(=O)c2cc(O)c(O)c(OC(=O)c3cc(O)c(O)c(O)c3)c2)[C@H]1OC(=O)c1cc(O)c(O)c(OC(=O)c2cc(O)c(O)c(O)c2)c1)c1cc(O)c(O)c(OC(=O)c2cc(O)c(O)c(O)c2)c1
- tumour outcome (control, treated, inhibition, significance) (Carcinogen: 2,2'-DIHYDROXY-DI-N-PROPYLNITROSAMINE, 53609-64-6, N-ETHYL-N-HYDROXYETHYLNITROSAMINE, 13147-25-6, 3,2'-DIMETHYL-4-AMINO-, Carcinogen: 2,2'-DIHYDROXY-DI-N-PROPYLNITROSAMINE, 53609-64-6, N-ETHYL-N-HYDROXYETHYLNITROSAMINE, 13147-25-6, 3,2'-DIMETHYL-4-AMINO-, Dose [Inhibitor]: 0, 1% IN DIET FOR 32 WK BEGINNING 1 WK POST CARCINOGEN TREATMENT (STUDY DURATION: 36 WK), Route [Inhibitor]: ORAL, Species: RAT, Strain/Sex: F344/MALE, Target Tissue: Type of Lesion: KIDNEY: TRANSITIONAL CELL CARCINOMA, Dose [Carcinogen]: 1000 MG/KG BW DHPN TWICE, 1500 MG/KG BW EHEN TWICE, 75 MG/KG BW DMAB 3 TIMES ADMINISTERED OVER FIRST 3 WK, Promoter: NONE USED): 1/14 (7%), 0/12 (0%), 100%, not significant
- tumour outcome (control, treated, inhibition, significance) (Carcinogen: 2,2'-DIHYDROXY-DI-N-PROPYLNITROSAMINE, 53609-64-6, N-ETHYL-N-HYDROXYETHYLNITROSAMINE, 13147-25-6, 3,2'-DIMETHYL-4-AMINO-, Carcinogen: 2,2'-DIHYDROXY-DI-N-PROPYLNITROSAMINE, 53609-64-6, N-ETHYL-N-HYDROXYETHYLNITROSAMINE, 13147-25-6, 3,2'-DIMETHYL-4-AMINO-, Dose [Inhibitor]: 0, 1% IN DIET FOR 32 WK BEGINNING 1 WK POST CARCINOGEN TREATMENT (STUDY DURATION: 36 WK), Route [Inhibitor]: ORAL, Species: RAT, Strain/Sex: F344/MALE, Target Tissue: Type of Lesion: LARGE INTESTINE: ADENOMA, Dose [Carcinogen]: 1000 MG/KG BW DHPN TWICE, 1500 MG/KG BW THEN TWICE, 75 MG/KG BW DMAB 3 TIMES ADMINISTERED OVER FIRST 3 WK, Dose [Carcinogen]: 1000 MG/KG BW DHPN TWICE, 1500 MG/KG BW THEN TWICE, 75 MG/KG BW DMAB 3 TIMES ADMINISTERED OVER FIRST 3 WK, Promoter: NONE USED): 7/14 (50%), 2/12 (17%), 66%, not significant
- tumour outcome (control, treated, inhibition, significance) (Carcinogen: 2,2'-DIHYDROXY-DI-N-PROPYLNITROSAMINE, 53609-64-6, N-ETHYL-N-HYDROXYETHYLNITROSAMINE, 13147-25-6, 3,2'-DIMETHYL-4-AMINO-, Carcinogen: 2,2'-DIHYDROXY-DI-N-PROPYLNITROSAMINE, 53609-64-6, N-ETHYL-N-HYDROXYETHYLNITROSAMINE, 13147-25-6, 3,2'-DIMETHYL-4-AMINO-, Dose [Inhibitor]: 0, 1% IN DIET FOR 32 WK BEGINNING 1 WK POST CARCINOGEN TREATMENT (STUDY DURATION: 36 WK), Route [Inhibitor]: ORAL, Species: RAT, Strain/Sex: F344/MALE, Target Tissue: Type of Lesion: LARGE INTESTINE: CARCINOMA, Dose [Carcinogen]: 1000 MG/KG BW DHPN TWICE, 1500 MG/KG BW THEN TWICE, 75 MG/KG BW DMAB 3 TIMES ADMINISTERED OVER FIRST 3 WK, Promoter: NONE USED): 3/14 (21%), 1/12 (8%), 62%, not significant
- tumour outcome (control, treated, inhibition, significance) (Carcinogen: 2,2'-DIHYDROXY-DI-N-PROPYLNITROSAMINE, 53609-64-6, N-ETHYL-N-HYDROXYETHYLNITROSAMINE, 13147-25-6, 3,2'-DIMETHYL-4-AMINO-, Carcinogen: 2,2'-DIHYDROXY-DI-N-PROPYLNITROSAMINE, 53609-64-6, N-ETHYL-N-HYDROXYETHYLNITROSAMINE, 13147-25-6, 3,2'-DIMETHYL-4-AMINO-, Dose [Inhibitor]: 0, 1% IN DIET FOR 32 WK BEGINNING 1 WK POST CARCINOGEN TREATMENT (STUDY DURATION: 36 WK), Route [Inhibitor]: ORAL, Species: RAT, Strain/Sex: F344/MALE, Target Tissue: Type of Lesion: LIVER: HEPATOCELLULAR CARCINOMA, Dose [Carcinogen]: 1000 MG/KG BW DHPN TWICE, 1500 MG/KG BW THEN, 75 MG/KG BW DMAB 3 TIMES ADMINISTERED OVER FIRST 3 WKS, Promoter: NONE USED): 6/14 (43%), 3/12 (25%), 42%, not significant
- tumour outcome (control, treated, inhibition, significance) (Carcinogen: 2,2'-DIHYDROXY-DI-N-PROPYLNITROSAMINE, 53609-64-6, N-ETHYL-N-HYDROXYETHYLNITROSAMINE, 13147-25-6, 3,2'-DIMETHYL-4-AMINO-, Carcinogen: 2,2'-DIHYDROXY-DI-N-PROPYLNITROSAMINE, 53609-64-6, N-ETHYL-N-HYDROXYETHYLNITROSAMINE, 13147-25-6, 3,2'-DIMETHYL-4-AMINO-, Dose [Inhibitor]: 0, 1% IN DIET FOR 32 WK BEGINNING 1 WK POST CARCINOGEN TREATMENT (STUDY DURATION: 36 WK), Route [Inhibitor]: ORAL, Species: RAT, Strain/Sex: F344/MALE, Target Tissue: Type of Lesion: LUNG: ADENOMA, Dose [Carcinogen]: 1000 MG/KG BW DHPN TWICE, 1500 MG/KG BW THEN TWICE, 75 MG/KG BW DMAB 3 TIMES ADMINISTERED OVER FIRST 3 WK, Dose [Carcinogen]: 1000 MG/KG BW DHPN TWICE, 1500 MG/KG BW THEN TWICE, 75 MG/KG BW DMAB 3 TIMES ADMINISTERED OVER FIRST 3 WK, Promoter: NONE USED): 7/14 (50%), 7/12 (58%), -16%, not significant
- tumour outcome (control, treated, inhibition, significance) (Carcinogen: 2,2'-DIHYDROXY-DI-N-PROPYLNITROSAMINE, 53609-64-6, N-ETHYL-N-HYDROXYETHYLNITROSAMINE, 13147-25-6, 3,2'-DIMETHYL-4-AMINO-, Carcinogen: 2,2'-DIHYDROXY-DI-N-PROPYLNITROSAMINE, 53609-64-6, N-ETHYL-N-HYDROXYETHYLNITROSAMINE, 13147-25-6, 3,2'-DIMETHYL-4-AMINO-, Dose [Inhibitor]: 0, 1% IN DIET FOR 32 WK BEGINNING 1 WK POST CARCINOGEN TREATMENT (STUDY DURATION: 36 WK), Route [Inhibitor]: ORAL, Species: RAT, Strain/Sex: F344/MALE, Target Tissue: Type of Lesion: LUNG: CARCINOMA, Dose [Carcinogen]: 1000 MG/KG BW DHPN TWICE, 1500 MG/KG BW THEN TWICE, 75 MG/KG BW DMAB 3 TIMES ADMINISTERED OVER FIRST 3 WK, Promoter: NONE USED): 1/14 (7%), 2/12 (17%), -143%, not significant
- tumour outcome (control, treated, inhibition, significance) (Carcinogen: 2,2'-DIHYDROXY-DI-N-PROPYLNITROSAMINE, 53609-64-6, N-ETHYL-N-HYDROXYETHYLNITROSAMINE, 13147-25-6, 3,2'-DIMETHYL-4-AMINO-, Carcinogen: 2,2'-DIHYDROXY-DI-N-PROPYLNITROSAMINE, 53609-64-6, N-ETHYL-N-HYDROXYETHYLNITROSAMINE, 13147-25-6, 3,2'-DIMETHYL-4-AMINO-, Dose [Inhibitor]: 0, 1% IN DIET FOR 32 WK BEGINNING 1 WK POST CARCINOGEN TREATMENT (STUDY DURATION: 36 WK), Route [Inhibitor]: ORAL, Species: RAT, Strain/Sex: F344/MALE, Target Tissue: Type of Lesion: THYROID GLAND: CARCINOMA, Dose [Carcinogen]: 1000 MG/KG BW DHPN TWICE, 1500 MG/KG BW THEN TWICE, 75 MG/KG BW DMAB 3 TIMES ADMINISTERED OVER FIRST 3 WK, Promoter: NONE USED): 3/14 (21%), 2/12 (17%), 19%, not significant
- tumour outcome (control, treated, inhibition, significance) (Carcinogen: 2,2'-DIHYDROXY-DI-N-PROPYLNITROSAMINE, 53609-64-6, N-ETHYL-N-HYDROXYETHYLNITROSAMINE, 13147-25-6, 3,2'-DIMETHYL-4-AMINO-, Carcinogen: 2,2'-DIHYDROXY-DI-N-PROPYLNITROSAMINE, 53609-64-6, N-ETHYL-N-HYDROXYETHYLNITROSAMINE, 13147-25-6, 3,2'-DIMETHYL-4-AMINO-, Dose [Inhibitor]: 0, 1% IN DIET FOR 32 WK BEGINNING 1 WK POST CARCINOGEN TREATMENT (STUDY DURATION: 36 WK), Route [Inhibitor]: ORAL, Species: RAT, Strain/Sex: F344/MALE, Target Tissue: Type of Lesion: URINARY BLADDER: CARCINOMA, Dose [Carcinogen]: 1000 MG/KG BW DHPN TWICE, 1500 MG/KG BW THEN TWICE, 75 MG/KG BW DMAB 3 TIMES ADMINISTERED OVER FIRST THREE WEEKS, Promoter: NONE USED): 1/14 (7%), 2/12 (17%), -143%, not significant
- outcome (Carcinogen: 2,2'-DIHYDROXY-DI-N-PROPYLNITROSAMINE, 53609-64-6, N-ETHYL-N-HYDROXYETHYLNITROSAMINE, 13147-25-6, 3,2'-DIMETHYL-4-AMINO-, Carcinogen: 2,2'-DIHYDROXY-DI-N-PROPYLNITROSAMINE, 53609-64-6, N-ETHYL-N-HYDROXYETHYLNITROSAMINE, 13147-25-6, 3,2'-DIMETHYL-4-AMINO-, Dose [Inhibitor]: 0, 1% IN DIET FOR 32 WK BEGINNING 1 WK POST CARCINOGEN TREATMENT (STUDY DURATION: 36 WK), Route [Inhibitor]: ORAL, Species: RAT, Strain/Sex: F344/MALE, Target Tissue: Type of Lesion: URINARY BLADDER: PAPILLOMA, Dose [Carcinogen]: 1000 MG/KG BW DHPN TWICE, 1500 MG/KG BW THEN TWICE, 75 MG/KG BW DMAB 3 TIMES ADMINISTERED OVER FIRST 3 WK, Promoter: NONE USED): 0/14 (0%), 3/12 (25%), -100%, not significant
- tumour outcome (control, treated, inhibition, significance) (Carcinogen: 7,12-DIMETHYLBENZ(A)ANTHRACENE [57-97-6], Dose [Inhibitor]: 400 UG IN 200 µL ACETONE ONCE 24 HR AFTER THE LAST INJECTION OF IRON DEXTRAN (STUDY DURATION: 35 WKS), Route [Inhibitor]: DERMAL, Species: MOUSE, Strain/Sex: SWISS ALBINO/FEMALE, Target Tissue: Type of Lesion: SKIN: TUMORS, Dose [Carcinogen]: 40 UG IN 200 µL ACETONE DAILY FOR 5 D BEGINNING 1 HR AFTER TANNIC ACID TREATMENT (STUDY DURATION: 35 WKS), Promoter: IRON DEXTRAN [9004-66-4]): 70%, 10%, 86%, not calculated
- tumour outcome (control, treated, inhibition, significance) (Carcinogen: 7,12-DIMETHYLBENZ(A)ANTHRACENE [57-97-6], Dose [Inhibitor]: 400 UG IN 200 µL ACETONE ONCE (STUDY DURATION: 35 WKS), Route [Inhibitor]: DERMAL, Species: MOUSE, Strain/Sex: SWISS ALBINO/FEMALE, Target Tissue: Type of Lesion: SKIN: TUMORS, Dose [Carcinogen]: 40 UG IN 200 µL ACETONE DAILY FOR 5 D BEGINNING 1 HR AFTER TANNIC ACID TREATMENT (STUDY DURATION: 35 WKS)): 40%, 0%, 100%, not calculated
